Measurements published in PubChem BioAssay (NCI).
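48-hour exposure; five concentrations; linearly interpolated endpoints. The concentration for 50% growth inhibition is given as GI50. TGI denotes the concentration required for complete inhibition of growth.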

Experiments:
Assay in all cases: NCI anticancer screen, dose series, 48 h
BT-549 breast = system: BT-549 breast
HCT-116 colon = system: HCT-116 colon
MALME-3M melanoma = system: MALME-3M melanoma
MCF7 breast = system: MCF7 breast
NCI-H460 lung = system: NCI-H460 lung
PC-3 prostate = system: PC-3 prostate
RPMI-8226 leukemia = system: RPMI-8226 leukemia
SF-295 CNS = system: SF-295 CNS
SK-MEL-28 melanoma = system: SK-MEL-28 melanoma
SR leukemia = system: SR leukemia

| SMILES | GI50 (BT-549 breast) | TGI (BT-549 breast) | GI50 (HCT-116 colon) | TGI (HCT-116 colon) | GI50 (MALME-3M melanoma) | TGI (MALME-3M melanoma) | GI50 (MCF7 breast) | TGI (MCF7 breast) | GI50 (NCI-H460 lung) | TGI (NCI-H460 lung) | GI50 (PC-3 prostate) | TGI (PC-3 prostate) | GI50 (RPMI-8226 leukemia) | GI50 (SF-295 CNS) | TGI (SF-295 CNS) | GI50 (SK-MEL-28 melanoma) | TGI (SK-MEL-28 melanoma) | GI50 (SR leukemia) | TGI (SR leukemia) | TGI (RPMI-8226 leukemia) |
| --- | --- | --- | --- | --- | --- | --- | --- | --- | --- | --- | --- | --- | --- | --- | --- | --- | --- | --- | --- | --- |
| CC[CH2][Sn]([CH2]CC)([O]C(=O)Cc1ccc(F)cc1)[O][Sn]([CH2]CC)([CH2]CC)[O]C(=O)Cc1ccc(F)cc1 | 0.256 µM | 0.92 µM | 0.218 µM | 0.796 µM | 0.102 µM | 0.291 µM | 0.105 µM | 1.02 µM | 1.34 µM | 2.7 µM | 1 µM | 2.16 µM | 0.0382 µM | 0.587 µM | 1.57 µM | 0.157 µM | 0.446 µM | 0.0781 µM | 5.03 µM | – |
| Cn1c(=O)c2[nH]c(CCCCc3nc4c([nH]3)c(=O)n(C)c(=S)n4C)nc2n(C)c1=S | – | > 100 µM | – | > 100 µM | – | > 100 µM | – | > 100 µM | – | > 100 µM | – | > 100 µM | – | – | > 100 µM | – | > 100 µM | – | > 100 µM | > 100 µM |
| CCOCCOC[C@H]1CCCN(c2ccnc3sc(C(N)=O)c(N)c23)C1 | 9.35 µM | > 100 µM | 14.4 µM | > 100 µM | 86.6 µM | > 100 µM | 25.1 µM | > 100 µM | > 100 µM | > 100 µM | 21.7 µM | > 100 µM | 1.65 µM | 10.4 µM | > 100 µM | 23.5 µM | > 100 µM | 11 µM | > 100 µM | > 100 µM |
| Clc1ccc2c(NCCNc3nc(N4CCCC4)nc4ccccc34)ccnc2c1 | 2.01 µM | 4.98 µM | 0.309 µM | 1.02 µM | 1.91 µM | 3.6 µM | 0.156 µM | 3.86 µM | 0.22 µM | 0.506 µM | 1.71 µM | 8.73 µM | 1.76 µM | 1.47 µM | 2.88 µM | 1.84 µM | 3.55 µM | 0.365 µM | 2.36 µM | 4.96 µM |
| Nc1ncnc2c1ncn2C1OC(COC2C(CO)OC(OC(C(=O)O)C(O)C(OP(=O)(O)O)C(O)C(=O)O)C(O)C2O)C(O)C1O (centres undefined) | – | > 100 µM | – | > 100 µM | – | > 100 µM | – | > 100 µM | – | > 100 µM | – | > 100 µM | – | – | > 100 µM | – | > 100 µM | – | > 100 µM | > 100 µM |
| O=[N+]([O-])c1cc2c(c([N+](=O)[O-])c1)Nc1ccccc1O2 | 7.58 µM | 60.8 µM | 4.49 µM | 63 µM | 4.08 µM | > 100 µM | 4.96 µM | > 100 µM | 4.62 µM | 83.1 µM | 4.12 µM | 34 µM | 2.96 µM | 4.7 µM | 29.1 µM | 19.5 µM | > 100 µM | 5.46 µM | > 100 µM | 8.2 µM |
| Nc1nc(-c2cccs2)cs1 | – | > 100 µM | – | > 100 µM | – | > 100 µM | – | > 100 µM | – | > 100 µM | – | > 100 µM | – | – | > 100 µM | – | > 100 µM | – | > 100 µM | > 100 µM |
| Oc1c(I)cc(I)cc1CN(Cc1ccccn1)Cc1ccccn1 | 1.12 µM | 13.8 µM | 0.666 µM | 12.4 µM | 1.84 µM | 9.2 µM | 0.548 µM | > 39.9 µM | 0.456 µM | 8.68 µM | 0.898 µM | 20.6 µM | 1.17 µM | 0.658 µM | > 27.1 µM | 1.44 µM | 31.6 µM | 0.476 µM | 9.77 µM | 14.1 µM |
